Earlier results in US12036203B2, “Methods of treating or reducing the risk of cardiovascular events and related diseases using SGLT-2 inhibitors” (Merck Sharp & Dohme LLC, priority 2016, dated 2024).

Conditions: type 2 diabetes at high cardiovascular risk

OC[C@H]1O[C@@H](c2ccc(Cl)c(Cc3ccc(O[C@H]4CCOC4)cc3)c2)[C@H](O)[C@@H](O)[C@@H]1O [empagliflozin]
rate of hospitalization for heart failure (in addition to standard of care, placebo group 4.1%): 2.7% | rate of death from cardiovascular causes (in addition to standard of care, placebo group 5.9%): 3.7% | rate of death from any cause (in addition to standard of care, placebo group 8.3%): 5.7% | rates of myocardial infarction or stroke (vs. placebo): no significant between-group differences | relative risk reduction, death from any cause (vs. placebo): 32% | relative risk reduction, death from cardiovascular causes (vs. placebo): 38% | relative risk reduction, hospitalization for heart failure (vs. placebo): 35%
